Experimental data published in patent US20250161228A1, “COMPOSITIONS COMPRISING ULTRAFINE BUBBLES AND METHODS OF USING THEREOF IN A METHOD OF PRODUCING AND DELIVERING ACTIVE PHARMACEUTICAL INGREDIENTS AND OTHER DISSOLVED SOLUTES” (Hydrosome IP, LLC, priority 2023, published 2025).

Tested on: Human embryonic kidney (HEK) cells
Assay: Intracellular zinc uptake study, colorimetric assay at 540 nm
Type: cell-based
Experimental: Human embryonic kidney (HEK) cells were treated with a composition prepared in accordance with the disclosure, the composition comprising zinc in a Cellular Hydration Water Advanced Zinc Formulation (Zinc Formulation) to test intracellular zinc uptake in vitro. The composition comprised 93 micromolar zinc (II) ions. The HEK cells were treated with compositions comprising 10%, 50%, or 100% Zinc Formulation. Zinc content was measured at 15, 30, 45, and 60 minutes using a colorimetric assay measuring light absorbance at 540 nm. The changes in intracellular zinc content were compared to a control group of HEK cells treated with a ZnSO4 solution.

O=S(=O)([O-])[O-].[Zn+2] [ZnSO4]
increase in intracellular zinc content (10% composition or its ZnSO4 control, 30 minutes): 20.4% | increase in intracellular zinc content (50% composition or its ZnSO4 control, 15 minutes): 42% | increase in intracellular zinc content (50% composition or its ZnSO4 control, 30 minutes): 29.6% | increase in intracellular zinc content (50% composition or its ZnSO4 control, 60 minutes): 42.2%
